The text below walks through data of patent publication US20230114153A1, “IMIDAZOLYL THIOPEHENE SULFONYL CARBAMATES FOR USE IN THE TREATMENT OF DISEASES ASSOCIATED WITH ANGIOTENSIN II” (Vicore Pharma AB, priority 2020, published 2023).

Series [1] addresses T1, human recombinant AT2 receptor (Homo sapiens, UniProt P50052).
T1 construct: Eurofins (contract protocol) ITEM26
T1 sequence (P50052 1-363): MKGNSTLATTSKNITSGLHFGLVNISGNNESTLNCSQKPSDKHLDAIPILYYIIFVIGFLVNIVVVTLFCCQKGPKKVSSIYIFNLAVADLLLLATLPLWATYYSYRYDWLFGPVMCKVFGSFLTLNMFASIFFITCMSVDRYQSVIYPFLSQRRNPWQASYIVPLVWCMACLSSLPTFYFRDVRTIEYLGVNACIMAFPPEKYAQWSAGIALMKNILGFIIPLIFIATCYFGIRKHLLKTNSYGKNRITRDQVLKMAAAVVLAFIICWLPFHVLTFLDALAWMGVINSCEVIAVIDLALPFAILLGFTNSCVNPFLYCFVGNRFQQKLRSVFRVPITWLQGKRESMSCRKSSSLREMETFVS
Put plainly: Binding to human recombinant AT2 receptor, radiometric scintillation assay (Eurofins ITEM26). To be noted: ligand 125I CGP 42112A, 2-4 h at 37° C., tested at 1, 10, 100 and 1000 nM.

For a further series, the target named is T2, CYP2C8 (Homo sapiens, UniProt P10632).
T2 construct: incubated with human liver microsomes; tissue Eurofins (contract protocol) ITEMG232; host or cells: human liver microsomes
T2 sequence (P10632 1-490): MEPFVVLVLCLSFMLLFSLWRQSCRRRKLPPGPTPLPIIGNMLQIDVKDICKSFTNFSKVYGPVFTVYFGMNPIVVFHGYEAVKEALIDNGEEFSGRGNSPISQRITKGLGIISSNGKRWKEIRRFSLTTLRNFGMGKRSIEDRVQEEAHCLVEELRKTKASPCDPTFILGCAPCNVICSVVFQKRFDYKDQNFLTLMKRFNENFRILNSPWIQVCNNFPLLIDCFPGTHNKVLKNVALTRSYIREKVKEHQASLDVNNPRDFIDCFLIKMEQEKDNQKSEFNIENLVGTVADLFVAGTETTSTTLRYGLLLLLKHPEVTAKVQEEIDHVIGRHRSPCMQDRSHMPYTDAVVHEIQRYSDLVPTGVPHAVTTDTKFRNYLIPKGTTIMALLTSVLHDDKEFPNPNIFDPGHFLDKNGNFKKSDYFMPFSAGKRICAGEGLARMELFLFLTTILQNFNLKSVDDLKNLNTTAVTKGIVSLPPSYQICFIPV
As to the kind of experiment: CYP inhibition in human liver microsomes, CYP2C8. The format is in vitro ADME. The settings on record: probe paclitaxel and amodiaquine, substrates paclitaxel and amodiaquine, read-out: CYP2C8 Inh %. The method, then:
(§1) The following substrates were used; CYP1A phenacetin, CYP2B6 bupropion, CYP2C8 paclitaxel and amodiaquine, CYP2C9 diclofenac, CYP2C19 omeprazole, CYP2D6 dextromethorphan, CYP3A midazolam and testosterone. At the end of the incubation, the formation of metabolite was monitored by HPLC-MS/MS as the peak area response.

The target of another series is T3, CYP2B6 (Homo sapiens, UniProt P20813).
T3 construct: incubated with human liver microsomes; tissue Eurofins (contract protocol) ITEMG232; host or cells: human liver microsomes
T3 sequence (P20813 1-491): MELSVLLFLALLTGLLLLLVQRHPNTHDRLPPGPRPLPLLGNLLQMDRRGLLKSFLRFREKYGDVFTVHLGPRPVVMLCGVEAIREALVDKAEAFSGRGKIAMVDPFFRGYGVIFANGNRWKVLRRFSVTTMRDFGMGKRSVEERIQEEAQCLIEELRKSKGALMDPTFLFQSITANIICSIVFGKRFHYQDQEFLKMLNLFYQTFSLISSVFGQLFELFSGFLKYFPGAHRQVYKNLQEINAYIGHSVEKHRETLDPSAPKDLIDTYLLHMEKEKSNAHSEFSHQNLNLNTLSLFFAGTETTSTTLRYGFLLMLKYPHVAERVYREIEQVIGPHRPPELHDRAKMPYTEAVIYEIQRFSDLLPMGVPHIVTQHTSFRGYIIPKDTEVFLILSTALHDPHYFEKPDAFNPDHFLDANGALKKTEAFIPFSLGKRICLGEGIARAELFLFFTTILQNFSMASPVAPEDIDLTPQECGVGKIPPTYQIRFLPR
Put plainly: CYP inhibition in human liver microsomes, CYP2B6. To be noted: probe bupropion, substrate bupropion, read-out: CYP2B6 Inh %. The format is in vitro ADME. The method, then:
as §1
Background: Liver microsomes are a subcellular fraction often used to study metabolism.

The target of another series is T4, CYP2D6 (Homo sapiens, UniProt P10635).
T4 construct: incubated with human liver microsomes; tissue Eurofins (contract protocol) ITEMG232; host or cells: human liver microsomes
T4 sequence (P10635 whole entry): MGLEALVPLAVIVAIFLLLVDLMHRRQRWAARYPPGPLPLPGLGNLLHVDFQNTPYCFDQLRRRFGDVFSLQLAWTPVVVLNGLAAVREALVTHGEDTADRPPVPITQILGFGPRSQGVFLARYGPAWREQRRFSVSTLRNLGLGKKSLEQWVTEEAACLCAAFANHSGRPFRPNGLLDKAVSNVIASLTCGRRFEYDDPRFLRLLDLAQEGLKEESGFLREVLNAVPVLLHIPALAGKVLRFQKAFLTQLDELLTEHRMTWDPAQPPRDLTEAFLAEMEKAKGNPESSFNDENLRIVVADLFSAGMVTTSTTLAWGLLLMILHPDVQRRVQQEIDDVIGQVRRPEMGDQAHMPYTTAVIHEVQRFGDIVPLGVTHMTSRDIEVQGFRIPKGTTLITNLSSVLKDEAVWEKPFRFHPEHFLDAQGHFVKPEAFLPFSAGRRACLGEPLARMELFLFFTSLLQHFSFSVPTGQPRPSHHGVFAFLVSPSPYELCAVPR
As to the kind of experiment: CYP inhibition in human liver microsomes, CYP2D6. The format is in vitro ADME. To be noted: probe dextromethorphan, substrate dextromethorphan, read-out: CYP2D6 Inh %. As to the method:
as §1

Another series deals with T5, CYP1A (Homo sapiens, UniProt P05177).
T5 construct: incubated with human liver microsomes; tissue Eurofins (contract protocol) ITEMG232; host or cells: human liver microsomes
T5 sequence (P05177 1-516): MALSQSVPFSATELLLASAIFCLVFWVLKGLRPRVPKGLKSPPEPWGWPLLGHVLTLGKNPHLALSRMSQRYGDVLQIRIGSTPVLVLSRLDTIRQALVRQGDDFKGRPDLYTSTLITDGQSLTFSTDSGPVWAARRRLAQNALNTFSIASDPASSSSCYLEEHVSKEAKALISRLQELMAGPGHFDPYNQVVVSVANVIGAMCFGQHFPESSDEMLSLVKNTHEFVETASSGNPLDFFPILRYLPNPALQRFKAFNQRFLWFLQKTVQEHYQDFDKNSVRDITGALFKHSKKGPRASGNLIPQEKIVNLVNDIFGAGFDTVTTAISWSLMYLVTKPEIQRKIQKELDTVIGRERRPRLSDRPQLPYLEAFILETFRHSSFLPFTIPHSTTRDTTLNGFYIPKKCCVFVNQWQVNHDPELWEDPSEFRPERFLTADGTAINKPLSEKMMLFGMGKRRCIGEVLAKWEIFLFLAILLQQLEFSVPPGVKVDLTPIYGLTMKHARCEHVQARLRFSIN
Put plainly: CYP inhibition in human liver microsomes, CYP1A. The format is in vitro ADME. The settings on record: probe phenacetin, substrate phenacetin, read-out: CYP1A Inh %. The method, then:
as §1

The subject of a further series is CYP3A4&5. As to the kind of experiment: CYP inhibition in human liver microsomes, CYP3A4&5 (testosterone). The format is in vitro ADME. The settings on record: probe testosterone, substrate testosterone, read-out: CYP3A4&5 testosterone Inh %. As to the method:
as §1

In another series the target is T6, CYP2C9 (Homo sapiens, UniProt P11712).
T6 construct: incubated with human liver microsomes; tissue Eurofins (contract protocol) ITEMG232; host or cells: human liver microsomes
T6 sequence (P11712 whole entry): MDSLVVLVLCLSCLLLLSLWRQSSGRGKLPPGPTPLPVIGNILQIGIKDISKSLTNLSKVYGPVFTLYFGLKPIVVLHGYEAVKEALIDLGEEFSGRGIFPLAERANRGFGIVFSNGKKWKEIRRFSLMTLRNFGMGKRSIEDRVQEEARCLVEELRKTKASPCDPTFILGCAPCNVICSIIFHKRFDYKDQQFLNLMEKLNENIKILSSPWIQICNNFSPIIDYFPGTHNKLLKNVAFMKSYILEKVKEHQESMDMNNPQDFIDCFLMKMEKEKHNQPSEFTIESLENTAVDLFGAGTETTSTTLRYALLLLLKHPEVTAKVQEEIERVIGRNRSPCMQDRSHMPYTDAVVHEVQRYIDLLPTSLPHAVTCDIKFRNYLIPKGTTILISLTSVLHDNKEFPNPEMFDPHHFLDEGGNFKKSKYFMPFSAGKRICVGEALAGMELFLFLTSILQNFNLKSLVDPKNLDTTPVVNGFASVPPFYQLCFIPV
As to the kind of experiment: CYP inhibition in human liver microsomes, CYP2C9. The class given is in vitro ADME. To be noted: probe diclofenac, substrate diclofenac, read-out: CYP2C9 Inh %. As to the method:
as §1

The target of a further series is T7, CYP3A4 (Homo sapiens, UniProt P08684).
T7 construct: incubated with human liver microsomes; tissue Eurofins (contract protocol) ITEMG232; host or cells: human liver microsomes
T7 sequence (P08684 whole entry): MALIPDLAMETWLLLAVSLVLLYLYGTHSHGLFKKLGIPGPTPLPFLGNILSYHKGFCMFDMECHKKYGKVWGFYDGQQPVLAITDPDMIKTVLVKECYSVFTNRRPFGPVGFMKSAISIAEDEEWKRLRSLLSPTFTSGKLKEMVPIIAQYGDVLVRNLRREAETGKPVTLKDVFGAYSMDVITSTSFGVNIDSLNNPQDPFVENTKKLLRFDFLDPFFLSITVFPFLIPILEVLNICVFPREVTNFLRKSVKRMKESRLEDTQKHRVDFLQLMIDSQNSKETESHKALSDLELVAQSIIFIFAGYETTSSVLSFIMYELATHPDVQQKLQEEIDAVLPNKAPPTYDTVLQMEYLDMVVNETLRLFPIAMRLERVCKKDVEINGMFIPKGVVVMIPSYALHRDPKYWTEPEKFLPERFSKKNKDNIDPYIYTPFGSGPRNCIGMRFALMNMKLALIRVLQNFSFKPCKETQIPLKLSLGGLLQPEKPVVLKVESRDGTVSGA
Put plainly: CYP inhibition in human liver microsomes, CYP3A4 (midazolam). The format is in vitro ADME. The settings on record: probe midazolam, substrate midazolam, read-out: CYP3A4 midazolam Inh %. As to the method:
as §1

The next series concerns the target T8, CYP2C19 (Homo sapiens, UniProt P33261).
T8 construct: incubated with human liver microsomes; tissue Eurofins (contract protocol) ITEMG232; host or cells: human liver microsomes
As to the kind of experiment: CYP inhibition in human liver microsomes, CYP2C19. The format is in vitro ADME. To be noted: probe omeprazole, substrate omeprazole, read-out: CYP2C19 Inh %. As to the method:
as §1

T8 sequence (P33261 whole entry): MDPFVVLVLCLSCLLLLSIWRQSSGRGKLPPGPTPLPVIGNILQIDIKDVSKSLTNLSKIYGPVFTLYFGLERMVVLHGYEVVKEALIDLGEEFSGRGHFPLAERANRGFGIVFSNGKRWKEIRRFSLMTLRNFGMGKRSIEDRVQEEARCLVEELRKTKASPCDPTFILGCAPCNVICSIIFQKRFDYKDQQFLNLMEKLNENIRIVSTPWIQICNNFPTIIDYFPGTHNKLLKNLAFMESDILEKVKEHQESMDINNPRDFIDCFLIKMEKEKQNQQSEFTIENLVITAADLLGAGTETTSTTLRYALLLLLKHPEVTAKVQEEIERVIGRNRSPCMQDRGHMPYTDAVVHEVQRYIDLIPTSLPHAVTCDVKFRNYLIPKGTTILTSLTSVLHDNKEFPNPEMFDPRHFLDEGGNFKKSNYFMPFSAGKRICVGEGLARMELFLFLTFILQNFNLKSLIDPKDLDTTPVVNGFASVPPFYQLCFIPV

As usually defined, the IC50 is the concentration needed to halve the response being measured. For the molecule `CCCCOC(=O)NS(=O)(=O)c1sc(CC(C)C)cc1-c1ccc(Cn2ccnc2C)cc1` [Example 1, Butyl (5-isobutyl-3-(4-((2-methyl-1H-imidazol-1-yl)methyl)phenyl)thiophen-2-yl)sulfonyl-carbamate], in [1], the half-maximal inhibitory concentration (IC50) came to 530 pM. Further, the inhibition at 10 µM on CYP2C8 was 37.5%; at CYP2B6 it was 17.6%; on CYP2D6 it was 22.4%; on CYP1A, 2.5%; with CYP3A4&5, 13.5%; on CYP2C9 it was 58.9%. Also, the inhibition at 10 µM was approximately 0% at CYP3A4 and 43% at CYP2C19.
`CCCCOC(=O)NS(=O)(=O)c1sc(CC(C)C)cc1-c1ccc(Cn2ccnc2)cc1` [Example C21, N-butyloxycarbonyl-3-(4-imidazol-1-ylmethylphenyl)-5-isobutylthiophene-2-sulfon-amide, reference compound]: the inhibition at 10 µM worked out at 80.4% on CYP2C8; 48.8% at CYP2B6; 81.2% at CYP2D6; 90.9% at CYP1A; 94.2% with CYP3A4&5; 95.2% at CYP3A4.
